Assay: HILIC, Waters ACQUITY UPLC BEH Amide, 100 × 2.1 mm, 1.7 µm; A: water + 0.125% formic acid + 10 mM ammonium formate; B: 5% water + 95% acetonitrile + 0.125% formic acid + 10 mM ammonium formate; gradient (min/%B) 0/100 2/100 7.7/70 9.5/40 10.25/30 12.75/100 17/100
Settings: stereoisomer not certain
With Nc1ccc(O)c(C(=O)O)c1 the LC retention time was 3.89 min.
Nc1nc2ccc(Cl)cc2c2nc(-c3ccco3)nn12 gave an LC retention time of 1.07 min.
Compound NC1CCN(c2cccc(Cl)n2)CC1 has an LC retention time of 4.85 min.
C=C(C)CN1CCC23c4c5ccc(O)c4OC2c2[nH]c4ccccc4c2CC3(O)C1C5 (stereo not given) gave an LC retention time of 2.93 min.
CC(=O)NCCCCCCNC(C)=O showed an LC retention time of 1.5 min.
COCC1=C(C(=O)OC(C)OC(=O)OC(C)C)N2C(=O)C(NC(=O)C(=NOC)c3csc(N)n3)C2SC1 (stereo not given) showed an LC retention time of 1.12 min.
Cc1sc(N)c(C(=O)c2cccc(C(F)(F)F)c2)c1C showed an LC retention time of 0.94 min.
With Cc1cc2nc3c(=O)[nH]c(=O)nc-3n(CC(O)C(O)C(O)COP(=O)(O)OP(=O)(O)OCC3OC(n4cnc5c(N)ncnc54)C(O)C3O)c2cc1C (stereo not given) the LC retention time was 9.52 min.
Work on Cc1cn(C2CC(O)C(COP(=O)(O)O)O2)c(=O)[nH]c1=O (stereo not given) yielded an LC retention time of 8.28 min.
With CN1CCC2(c3cccc(O)c3)Cc3nc4ccccc4cc3CC2C1 (stereo not given) the LC retention time was 5.11 min.
Work on CN1CCN(c2nc3cc(C(F)(F)F)ccc3n3cccc23)CC1 yielded an LC retention time of 2.21 min.
Work on COC(=O)N1CCN(C(=O)Cc2ccc(Cl)c(Cl)c2)C(CN2CCCC2)C1 (stereo not given) yielded an LC retention time of 2.56 min.
For COc1ccc2[nH]cc(C3=CCNCC3)c2c1, the LC retention time was 4.61 min.
OC1CCCCC1O (stereo not given) [1,2-Cyclohexanediol] gave an LC retention time of 4.88 min.
In the case of O=C1CCCCC1=O [1,2-Cyclohexanedione], the LC retention time is reported as 5.77 min.
O=C1CCCC(=O)C1 [1,3 Cyclohexanedione] showed an LC retention time of 1.47 min.
CC12CCC3c4ccc(O)cc4CCC3C1CCC2=O (stereo not given) [1,3,5(10)-Estratrien-3-ol-17-one] gave an LC retention time of 1.01 min.
Cn1c(=O)c2c([nH]c(=O)n2C)n(C)c1=O [1,3,7-Trimethyluric acid] showed an LC retention time of 1.83 min.
Work on O=C(O)C1CCC(C(=O)O)CC1 (stereo not given) [1,4-Cyclohexanedicarboxylic acid] yielded an LC retention time of 1.56 min.
With O=C1CCC(=O)CC1 [1,4-Cyclohexanedione] the LC retention time was 1.15 min.
In the case of OCC1OCC(O)C(O)C1O (stereo not given) [1,5-Anhydrosorbitol], the LC retention time is reported as 0.92 min.
Work on Cn1c(=O)[nH]c2[nH]c(=O)n(C)c2c1=O [1,7-Dimethyluric acid] yielded an LC retention time of 4.09 min.
With Cn1c(=O)[nH]c2ncn(C)c2c1=O [1,7-Dimethylxanthine] the LC retention time was 1.69 min.
In the case of CC(=O)n1ccnc1 [1-Acetylimidazole], the LC retention time is reported as 1.37 min.
Compound c1ccc(Cn2ccnc2)cc1 [1-Benzylimidazole] has an LC retention time of 1.63 min.
With Cn1cnc2c(ncn2C2OC(CO)C(O)C2O)c1=N (stereo not given) [1-Methyladenosine] the LC retention time was 7.46 min.
Compound Cn1c(N)nc2c(ncn2C2OC(CO)C(O)C2O)c1=O (stereo not given) [1-Methylguanosine] has an LC retention time of 5.84 min.
In the case of C[n+]1cccc(C(N)=O)c1 [1-Methylnicotinamide], the LC retention time is reported as 6.26 min.
In the case of Cn1cc(C2OC(CO)C(O)C2O)c(=O)[nH]c1=O (stereo not given) [1-Methylpseudouridine], the LC retention time is reported as 4.99 min.
In the case of Cn1cc(CC(N)C(=O)O)c2ccccc21 (stereo not given) [1-Methyltryptophan], the LC retention time is reported as 6.38 min.
Compound Cn1c(=O)[nH]c2[nH]c(=O)[nH]c2c1=O [1-Methyluric acid] has an LC retention time of 2.18 min.
In the case of CCCCCCCCCCCCCCCCCC(=O)OCC(O)CO (stereo not given) [1-Monostearin], the LC retention time is reported as 0.99 min.
With O=c1[nH]cnc2c1ncn2C1CCC(CO)O1 (stereo not given) [2',3'-Dideoxyinosine] the LC retention time was 3.44 min.
Work on Nc1ncnc2c1ncn2C1CC(O)C(COP(=O)(O)O)O1 (stereo not given) [2'-Deoxyadenosine-5'-monophosphate] yielded an LC retention time of 8.63 min.
Nc1ncnc2c1ncn2C1CC(O)C(CO)O1 (stereo not given) [2'-Deoxyadenosine] showed an LC retention time of 3.92 min.
With Nc1ccn(C2CC(O)C(CO)O2)c(=O)n1 (stereo not given) [2'-Deoxycytidine] the LC retention time was 5.87 min.
Nc1nc2c(ncn2C2CC(OP(=O)(O)O)C(CO)O2)c(=O)[nH]1 (stereo not given) [2'-Deoxyguanosine 3'-monophosphate] gave an LC retention time of 9.43 min.
Work on Nc1nc2c(ncn2C2CC(O)C(COP(=O)(O)O)O2)c(=O)[nH]1 (stereo not given) [2'-Deoxyguanosine 5'-monophosphate] yielded an LC retention time of 9.25 min.
In the case of Nc1nc2c(ncn2C2CC(O)C(CO)O2)c(=O)[nH]1 (stereo not given) [2'-Deoxyguanosine], the LC retention time is reported as 6.4 min.
With COC1C(O)C(CO)OC1n1cc(C)c(N)nc1=O (stereo not given) [2'-O-Methyl-5-methylcytidine] the LC retention time was 4.93 min.
Compound COC1C(O)C(CO)OC1n1cc(C)c(=O)[nH]c1=O (stereo not given) [2'-O-Methyl-5-methyluridine] has an LC retention time of 1.75 min.
Work on COC1C(O)C(CO)OC1n1cnc2c(N)ncnc21 (stereo not given) [2'-O-Methyladenosine] yielded an LC retention time of 2.6 min.
COC1C(O)C(CO)OC1n1ccc(N)nc1=O (stereo not given) [2'-O-Methylcytidine] showed an LC retention time of 5.02 min.
For COC1C(O)C(CO)OC1n1cnc2c(=O)[nH]c(N)nc21 (stereo not given) [2'-O-Methylguanosine], the LC retention time was 5.72 min.
COC1C(O)C(CO)OC1n1cnc2c(=O)[nH]cnc21 (stereo not given) [2'-O-Methylinosine] showed an LC retention time of 4.06 min.
Work on COC1C(O)C(CO)OC1n1ccc(=O)[nH]c1=O (stereo not given) [2'-O-Methyluridine] yielded an LC retention time of 2.24 min.
In the case of CC(O)C(C)O (stereo not given) [2,3-Butanediol], the LC retention time is reported as 3.34 min.
For Nc1ccn(C2CCC(CO)O2)c(=O)n1 (stereo not given) [2,3-Dideoxycytidine], the LC retention time was 4.54 min.
In the case of O=c1ccn(C2CCC(CO)O2)c(=O)[nH]1 (stereo not given) [2,3-Dideoxyuridine], the LC retention time is reported as 1.73 min.
For NC(CCCC(N)C(=O)O)C(=O)O (stereo not given) [2,6-Diaminopimelic acid], the LC retention time was 9.88 min.
For O=c1ccc2cccc(O)c2[nH]1 [2,8-Quinolinediol], the LC retention time was 1.53 min.
Compound NCCc1ccccn1 [2-(2-Aminoethyl)pyridine] has an LC retention time of 5.52 min.
Compound COc1cccc(C(=O)O)c1N [2-Amino-3-methoxybenzoic acid] has an LC retention time of 1.27 min.
In the case of NCC(=O)c1ccccc1 [2-Aminoacetophenone], the LC retention time is reported as 1.08 min.
With NCCS [2-Aminoethanethiol] the LC retention time was 2.05 min.
Compound NCCP(=O)(O)O [2-Aminoethylphosphonic acid] has an LC retention time of 9.39 min.
Nc1ccccc1O [2-Aminophenol] showed an LC retention time of 1.22 min.
For OCC1OC(n2cnc3c(NC4CCCC4)nc(Cl)nc32)C(O)C1O (stereo not given) [2-Chloro-N6-cyclopentyladenosine], the LC retention time was 1.47 min.
Compound Nc1nc(Cl)nc2c1ncn2C1OC(CO)C(O)C1O (stereo not given) [2-Chloroadenosine] has an LC retention time of 2.69 min.
Work on Nc1ccn(C2CC(O)C(COP(=O)(O)O)O2)c(=O)n1 (stereo not given) [2-Deoxycytidine-5-monophosphoric acid] yielded an LC retention time of 9.16 min.
With O=CCC(O)C(O)CO (stereo not given) [2-Deoxyribose] the LC retention time was 1.42 min.
O=c1ccn(C2CC(O)C(CO)O2)c(=O)[nH]1 (stereo not given) [2-Deoxyuridine] showed an LC retention time of 2.96 min.
Work on CCCC=CC=O [2-Hexenal] yielded an LC retention time of 1.39 min.
Work on CC(C)C(O)C(=O)O (stereo not given) [2-Hydroxy-3-methylbutyric acid] yielded an LC retention time of 1.29 min.
CC(C)CC(O)C(=O)O (stereo not given) [2-Hydroxy-4-methylpentanoic acid] gave an LC retention time of 1.57 min.
O=C(CO)c1ccccc1 [2-Hydroxyacetophenone] gave an LC retention time of 4.36 min.
With O=C(C=Cc1ccccc1O)c1ccccc1 [2-Hydroxychalcone] the LC retention time was 1.01 min.
Compound O=C(O)CCC(O)C(=O)O (stereo not given) [2-Hydroxyglutaric acid] has an LC retention time of 0.91 min.
Work on O=c1ccc2ccccc2[nH]1 [2-Hydroxyquinoline] yielded an LC retention time of 1.51 min.
Work on Oc1cc2ccccc2[nH]1 [2-Indolinone] yielded an LC retention time of 1.36 min.

Source: the RepoRT retention time repository
